Here are results for seven compounds from patent US6734186B1, “Compounds for the treatment of female sexual dysfunction” (Pfizer Inc., priority 1999, dated 2004).

Assay [1] concerns anaesthetised rabbit model of sexual arousal. As to the kind of experiment: Enhancement of VIP-induced increases in vaginal blood flow, anaesthetised rabbit model. It is filed as in vivo. The settings on record: for effect on VIP-induced increases in vaginal blood flow: at clinically relevant doses. An excerpt:
(§1) A ventral midline incision was made, at the caudal end of the pubis, to expose the pubic area. Connective tissue was removed to expose the tunica of the clitoris, ensuring that the wall was free from small blood vessels. The external vaginal wall was also exposed by removing any connective tissue. One laser Doppler flow probe was inserted 3 cm into the vagina, so that half the probe shaft was still visible. A second probe was positioned so that it lay just above the external clitoral wall. The position of these probes was then adjusted until a signal was obtained. A second probe was placed just above the surface of a blood vessel on the external vaginal wall. Both probes were clamped in position.
(§2) Vaginal and clitoral blood flow was recorded either as numbers directly from the Flowmeter using Po-ne-mah data acquisition software (Ponemah Physiology Platform, Gould Instrument Systems Inc), or indirectly from Gould chart recorder trace. Calibration was set at the beginning of the experiment (0-125 ml/min/100 g tissue).
An initial infusion of Hepsaline (50UI/ml) was infused to act as a negative control.
(§3) NEP (Neutral Endopeptidase EC3.4.24.11; Sequence No. 1) inhibitors, phosphodiesterase type 5 (PDE5) inhibitors and NPY Y1 antagonists were made up in saline or 5% glucose solution (200 μl 50% glucose in 1.8 ml water for injection). PDEcAMP inhibitors were dissolved in a 40% ethanol solution (200 μl 50% glucose in 1.8 ml water/ethanol for injection).

Assay [2] has as its system isolated rabbit vagina. As to the kind of experiment: Enhancement of VIP-induced relaxation of precontracted isolated rabbit vagina by test agents. The format is cell-based. The settings on record: for Percentage enhancement of VIP(Sequence No. 8)-induced relaxation: PDE inhibitor at selective dose, isolated rabbit vagina, 1 μM phenylephrine; for effect on VIP-induced and nerve-mediated relaxations of isolated tissue: at clinically relevant doses. The method, then: (§4) 3.7 (a). Rabbit vagina in vitro preparation:—Female New Zealand white rabbits (2.0-3.0 kg) were killed by cervical dislocation. The abdominal cavity was opened and the vagina excised. Tissue strips were mounted longitudinally in Wesley Co. 5 ml silanised organ chambers with braided silk sutures (6/0 gauge) at an initial resting tension of 1.5 g in Krebs bicarbonate buffer maintained at 37° C. and gassed with 95%O2/5%CO2. The upper ligature of each tissue strip was attached to a 10 g capacity force-displacement transducer and changes in isometric force were measured and recorded using a DART in vitro data capture system. Tissues were allowed to equilibrate for 1.5 hours and were regularly washed with Krebs.
(§5) Each tissue was contracted using 1 μM bath concentration of phenylephrine. […] Tissues then received either a test agent (eg NEP or PDE inhibitor) or DMSO vehicle (time matched control).
(§6) For the purpose of curve fitting the minimum relaxation response was constrained to 0% and the maximum relaxation response was allowed to free fit.

The subject of assay [3] is anaesthetised rabbit model of sexual arousal. As to the kind of experiment: Enhancement of pelvic nerve stimulated (PNS) increases in vaginal blood flow, anaesthetised rabbit model. The format is in vivo. The settings on record: for effect on pelvic nerve stimulated increases in vaginal blood flow: at clinically relevant doses.
Source text: (§7) A ventral midline incision was made into the abdominal cavity. The incision was about 5 cm in length just above the pubis. The fat and muscle was bluntly dissected away to reveal the hypogastric nerve which runs down the body cavity. It was essential to keep close to the side curve of the pubis wall in order to avoid damaging the femoral vein and artery which lie above the pubis. The sciatic and pelvic nerves lie deeper and were located after further dissection on the dorsal side of the rabbit. Once the sciatic nerve is identified, the pelvic nerve was easily located. The term pelvic nerve is loosely applied; anatomy books on the subject fail to identify the nerves in sufficient detail. However, stimulation of the nerve causes an increase in vaginal and clitoral blood flow, and innervation of the pelvic region. The pelvic nerve was freed away from surrounding tissue and a Harvard bipolar stimulating electrode was placed around the nerve. The nerve was slightly lifted to give some tension, then the electrode was secured in position. Approximately 1 ml of light paraffin oil was placed around the nerve and electrode. This acts as a protective lubricant to the nerve and prevents blood contamination of the electrode. The electrode was connected to a Grass S88 Stimulator. The pelvic nerve was stimulated using the following parameters: −5V, pulse width 0.5 ms, duration of stimulus 10 seconds and a frequency range of 2 to 16 Hz. Reproducible responses were obtained when the nerve was stimulated every 15-20 minutes.
A frequency response curve was determined at the start of each experiment in order to determine the optimum frequency to use as a sub-maximal response, normally 4 Hz. The compound(s) to be tested were infused, via the femoral vein, using a Harvard 22 infusion pump allowing a continuous 15 minute stimulation cycle.
as §1, §2, §3

Assay [4] has the same test system. As to the kind of experiment: Enhancement of pelvic nerve stimulated increases in clitoral blood flow, anaesthetised rabbit model. It is filed as in vivo.
Source text: as §7
A frequency response curve was determined at the start of each experiment in order to determine the optimum frequency to use as a sub-maximal response, normally 4 Hz. The compound(s) to be tested were infused, via the femoral vein, using a Harvard 22 infusion pump allowing a continuous 15 minute stimulation cycle. […]
Vaginal and clitoral blood flow was recorded either as numbers directly from the Flowmeter using Po-ne-mah data acquisition software (Ponemah Physiology Platform, Gould Instrument Systems Inc), or indirectly from Gould chart recorder trace. […]

Assay [5] has as its system isolated rabbit vagina. The assay can be described thus: Electrical field stimulated (EFS) relaxation of isolated rabbit vagina. The format is cell-based. The method, then: Rabbit vaginal strips were prepared as described in Section 3.7 (a). The tissue strips were mounted between two platinum electrodes placed at the top and bottom of the organ chamber approximately 4 cm apart. Each tissue was contracted using 1 μM bath concentration of phenylephrine. When the contractile response reached a stable plateau (15 minutes), the tissues underwent a pre-treatment electrical field stimulated (EFS) induced relaxation curve. This was performed between 40-60 volts using sequential frequencies of 2, 4, 8 and 16 Hz delivered as 10 second trains of 0.5 milli second pulse width. The tissues were allowed to return to base line pre-contractile tension between each frequency (5 minutes) and the size of the relaxation response recorded.
After completion of the pre-treatment EFS response curve, all tissues were washed for 15 minutes, allowing the tissues to return to the baseline tension. Tissues then received either a test agent (eg NEP or PDE inhibitor, nitric oxide synthase [NOS] inhibitor) or DMSO vehicle (time matched control). Tissues were re-contracted with phenylephrine (1 μM) 15 minutes after the addition of compound or vehicle and an EFS-induced relaxation response curve determined as described above. […]

Assay [6] concerns anaesthetised rabbit model of sexual arousal. The assay can be described thus: Increase in clitoral blood flow after iv infusion of vasoactive agents, anaesthetised rabbit model. The format is in vivo. The settings on record: forskolin 40 nmol/kg iv.
Source text: as §1, §2

The test system of assay [7] is isolated rabbit vagina. The assay can be described thus: Relaxation of precontracted (1 μM phenylephrine) isolated rabbit vaginal strips. It is filed as cell-based. The settings on record: Oryctolagus cuniculus, precontracted with 1 μM phenylephrine. The method, then:
as §4, §5, §6

Turning to `COc1ccc(Cc2nc3c(ncn3C(CCCc3ccccc3)C(C)=O)c(=O)[nH]2)cc1OC` (centres unmarked) [FII, 9-(1-acetyl-4-phenylbutyl)-2-[(3,4-dimethoxyphenyl)methyl]-1,9-dihydro-6H-purin-6-one], the “enhancement of peak increase in blood flow induced by VIP-stimulation” value in assay [1] (200 μg/kg) is listed as “circa 15±3%”. In addition, the “enhancement of duration of VIP-induced increases in peak vaginal blood flow” value in assay [1] (VIP 60 μg/kg, measured at 50% amplitude) is “over 100%”. For the same compound, the “effect on VIP-induced increases in vaginal blood flow” value (“effect on VIP-induced increases” for short) in assay [1] is listed as “enhances”. Besides, the “effect on VIP-induced enhanced vaginal blood flow” value in assay [1] (inhibitor 25 μg/kg iv bolus, VIP 60 μg/kg iv bolus) was “potentiates the duration”. For the same compound, the “Percentage enhancement of VIP(Sequence No. 8)-induced relaxation” value in assay [2] stood at 130%. Moreover, the “potentiation of VIP EC50 values” in assay [2] (inhibitor at 8 nM) turned out to be 130%. Also, the “enhancement of peak increase in blood flow induced by pelvic nerve stimulation” value in assay [3] (200 μg/kg, 4 Hz) is “circa 15±3%”. For the same compound, the “enhancement of peak increase in PNS vaginal blood flow” value in assay [3] (500 μg/kg iv, 4 Hz) was found to be 86.8±21.9%. Also, in assay [3], the “effect on pelvic nerve stimulated increases in vaginal blood flow” value is “enhances”.

On to `Cc1nc(O)c(C#N)cc1-c1ccncc1` [FIII, Milrinone], for which the “Percentage enhancement of VIP(Sequence No. 8)-induced relaxation” value in assay [2] was determined as 220%. For the same compound, in assay [2] (inhibitor at 3.4 μM), the “potentiation of VIP EC50 values” was 220%.

As to `COc1ccc(C2CNC(=O)C2)cc1OC1CCCC1` (centres unmarked) [FIV, Rolipram], in assay [2], the “Percentage enhancement of VIP(Sequence No. 8)-induced relaxation” value worked out at 160%. In assay [2] (inhibitor at 686 nM), the “potentiation of VIP EC50 values” came out at 160%.

As for `C=CCC(CC1(C(=O)NC2CCCC(C(=O)OCC)C2)CCCC1)C(=O)O` (centres unmarked) [FV, cyclohexanecarboxylic acid, 3-[[[1-(2-carboxy-4-pentenyl)cyclopentyl]carbonyl]amino]-,1-ethyl ester], in assay [1], the “effect on VIP-induced increases” value is “enhance”. The “effect on VIP-induced and nerve-mediated relaxations of isolated tissue” value in assay [2] was “enhance”. For the same compound, in assay [3], the “effect on pelvic nerve stimulated increases in vaginal blood flow” value was “enhance”.

Regarding `C=CCC(CC1(C(=O)NC2CCCC(C(=O)O)C2)CCCC1)C(=O)O` (centres unmarked) [FVI, cyclohexanecarboxylic acid, 3-[[[1-(2-carboxy-4-pentenyl)cyclopentyl]carbonyl]amino]-], in assay [1] (VIP dose producing maximal flow increases), the “increase in duration of VIP-induced elevation of vaginal blood flow” value is on record as “circa 80%”. The “duration of VIP-induced elevation in presence of inhibitor” value in assay [1] (VIP dose producing maximal flow increases, 11 minutes without inhibitor) was determined as 20 min. The “effect on VIP-induced increases” value in assay [1] is given as “enhance”. In addition, the “effect on VIP-induced enhanced vaginal blood flow” value was “only potentiate the duration” in assay [1] (maximal VIP 60 μg/kg); “both potentiates the amplitude and prolongs the duration” in assay [1] (submaximal VIP 6.0 μg/kg). The “potentiation of peak VIP-induced increase in vaginal blood flow” value in assay [1] (submaximal VIP 6.0 μg/kg) is 95±6%. The “prolongation of duration of VIP-induced increase in vaginal blood flow” value in assay [1] (submaximal VIP 6.0 μg/kg) is “circa 140%”. Further, the “duration of VIP-induced increase in presence of inhibitor” value in assay [1] (submaximal VIP 6.0 μg/kg, 7 minutes without inhibitor) is above 17 min. Besides, the “effect on VIP-induced and nerve-mediated relaxations of isolated tissue” value in assay [2] is given as “enhance”. Moreover, the “enhancement of peak increase in PNS clitoral blood flow” value in assay [4] (1.0 mg/kg iv, 4 Hz) turned out to be 131%. Further, in assay [4] (compared to vehicle control increases), the “maximal enhancement of peak increase in PNS clitoral blood flow (up to)” value was “up to 131%”. For the same compound, the “effect on basal (unstimulated) clitoral blood flow” value in assay [4] (no pelvic nerve stimulation) is listed as “no effect”. In addition, in assay [5] (1 μM), the “effect on non-nitric oxide NANC relaxation induced by EFS” value was “enhances”. In addition, the “enhancement of peak increase in PNS vaginal blood flow” value is recorded as 35.0±7.6% in assay [3] (0.1 mg/kg iv, submaximal stimulation 4 Hz) and 40% in assay [3] (0.3 mg/kg iv, submaximal stimulation 4 Hz, listed as NEP inhibitor). Further, in assay [3], the “effect on pelvic nerve stimulated increases in vaginal blood flow” value is given as “enhance”. The “maximal enhancement of peak increase in PNS vaginal blood flow (up to)” value in assay [3] (compared to time matched control increases) was “up to 53%”. In addition, in assay [3] (no pelvic nerve stimulation), the “effect on basal (unstimulated) vaginal blood flow” value is listed as “no effect”.

As for `NC(=NCCC[C@H](N)C(=O)O)N[N+](=O)[O-]` [L-NOARG], the “inhibition of EFS-induced relaxations” value in assay [5] (300 μM) amounted to 50%.

What is called IC50 is the concentration that inhibits the measured activity by half. A lower IC50 goes with greater potency in that assay. In general, EC50 refers to the concentration at which the effect is half-maximal. On to `C=C[C@@]1(C)CC(=O)[C@]2(O)[C@@]3(C)[C@@H](O)CCC(C)(C)[C@@H]3[C@H](O)[C@H](OC(C)=O)[C@@]2(C)O1` [forskolin], for which the “increase in clitoral blood flow” value in assay [6] came to 156%. In assay [7] (FIG. 4c), this compound had an IC50 of around 0.3 µM. Besides, the EC50 in assay [7] (read-out: EC50 for relaxation in isolated vaginal tissue) amounted to 0.32 ± 0.02 µM.
